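Cells were grown in 96-well plates and exposed to each compound for 48 hours at five concentrations; endpoints were interpolated linearly between bracketing concentrations, or set to the highest concentration if not reached. At the GI50, growth is halved.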 Activity calls are given as the source filed them. Rule as the data show it: active = GI50 up to about 1.1 µM and inactive = higher.
How the values were obtained:
Test in all cases: DTP human tumour cell line panel, 48 h
HL-60 = test system: HL-60
HOP-92 = test system: HOP-92
IGROV-1 = test system: IGROV-1
K562 = test system: K562
LOX IMVI = test system: LOX IMVI
NCI-H226 = test system: NCI-H226
OVCAR-3 = test system: OVCAR-3
OVCAR-8 = test system: OVCAR-8
SF-268 = test system: SF-268
SF-295 = test system: SF-295
SK-MEL-28 = test system: SK-MEL-28
SK-MEL-2 = test system: SK-MEL-2
SK-OV-3 = test system: SK-OV-3
SN12C = test system: SN12C
SNB-75 = test system: SNB-75
U-251 = test system: U-251
HCC 2998 = test system: HCC 2998
HCT-116 = test system: HCT-116
KM12 = test system: KM12
UACC-257 = test system: UACC-257

Measured: GI50

CCOC(=O)C(=CNC(Cc1c[nH]c2ccccc12)C(=O)OC)C(=O)OCC (stereo unspecified)
inactive: HL-60 > 100 µM | HOP-92 16.6 µM | IGROV-1 > 100 µM | K562 > 100 µM | LOX IMVI > 100 µM | NCI-H226 > 100 µM | OVCAR-3 > 100 µM | OVCAR-8 > 100 µM | SF-268 > 100 µM | SF-295 > 100 µM | SK-MEL-28 > 100 µM | SK-MEL-2 63.8 µM | SK-OV-3 > 100 µM | SN12C > 100 µM | SNB-75 > 100 µM | U-251 > 100 µM

O=c1[nH]nc(NCc2ccccc2)c2nnn(Cc3ccccc3)c12
inactive: HCC 2998 > 100 µM | HCT-116 > 100 µM | HL-60 > 100 µM | HOP-92 > 100 µM | K562 > 100 µM | KM12 > 100 µM | LOX IMVI > 100 µM | OVCAR-3 > 100 µM | OVCAR-8 > 100 µM | SF-295 > 100 µM | SK-MEL-28 > 100 µM | SK-MEL-2 > 100 µM | SN12C > 100 µM | U-251 > 100 µM | UACC-257 > 100 µM

C#CCOc1c(C(=O)OCC)c(=O)n(C)c2ccccc12
inactive: HL-60 > 100 µM | HOP-92 70 µM | IGROV-1 > 100 µM | K562 > 100 µM | LOX IMVI > 100 µM | NCI-H226 > 100 µM | OVCAR-3 > 100 µM | OVCAR-8 > 100 µM | SF-268 > 100 µM | SF-295 > 100 µM | SK-MEL-28 > 100 µM | SK-MEL-2 > 100 µM | SK-OV-3 > 100 µM | SN12C > 100 µM | SNB-75 54.5 µM | U-251 > 100 µM

CN(C)CCNC(=O)Cn1ccc(=O)c2ccc([N+](=O)[O-])cc21
inactive: HCC 2998 > 100 µM | HCT-116 > 100 µM | HL-60 > 100 µM | HOP-92 > 100 µM | IGROV-1 > 100 µM | K562 > 100 µM | KM12 > 100 µM | LOX IMVI > 100 µM | NCI-H226 > 100 µM | OVCAR-3 38.2 µM | SF-268 > 100 µM | SF-295 > 100 µM | SK-MEL-28 > 100 µM | SK-MEL-2 > 100 µM | SK-OV-3 > 100 µM | SN12C > 100 µM | U-251 > 100 µM | UACC-257 > 100 µM

N=S(=O)(c1ccccc1)c1ccccc1
inactive: HCC 2998 > 100 µM | HCT-116 > 100 µM | HL-60 > 100 µM | IGROV-1 > 100 µM | K562 28.2 µM | KM12 > 100 µM | LOX IMVI > 100 µM | NCI-H226 > 100 µM | OVCAR-3 > 100 µM | OVCAR-8 > 100 µM | SF-268 > 100 µM | SF-295 > 100 µM | SK-MEL-28 > 100 µM | SK-MEL-2 > 100 µM | SK-OV-3 > 100 µM | SN12C > 100 µM | SNB-75 > 100 µM | U-251 > 100 µM | UACC-257 > 100 µM

NC(CCOCCP(=O)(O)O)C(=O)O (stereo unspecified)
inactive: HCC 2998 > 100 µM | HCT-116 > 100 µM | HL-60 > 100 µM | HOP-92 > 100 µM | IGROV-1 > 100 µM | K562 > 100 µM | KM12 > 100 µM | LOX IMVI > 100 µM | OVCAR-3 > 100 µM | OVCAR-8 > 100 µM | SF-268 > 100 µM | SF-295 > 100 µM | SK-MEL-28 > 100 µM | SK-MEL-2 > 100 µM | SK-OV-3 > 100 µM | SN12C > 100 µM | SNB-75 > 100 µM | U-251 > 100 µM | UACC-257 > 100 µM

CCCOc1nc(N)c2cnn(C3CCCCO3)c2n1 (stereo unspecified)
inactive: HCC 2998 > 100 µM | HCT-116 > 100 µM | HL-60 > 100 µM | HOP-92 > 100 µM | IGROV-1 > 100 µM | K562 > 100 µM | KM12 > 100 µM | NCI-H226 > 100 µM | OVCAR-3 > 100 µM | OVCAR-8 > 100 µM | SF-268 > 100 µM | SF-295 > 100 µM | SK-MEL-28 > 100 µM | SK-MEL-2 > 100 µM | SK-OV-3 > 100 µM | SN12C > 100 µM | SNB-75 56.8 µM | U-251 > 100 µM | UACC-257 > 100 µM

Cc1n[nH]c(N)c1C(N)=O
inactive: HCC 2998 > 100 µM | HL-60 > 100 µM | IGROV-1 > 100 µM | K562 > 100 µM | KM12 > 100 µM | LOX IMVI > 100 µM | OVCAR-8 > 100 µM | SF-268 > 100 µM | SF-295 > 100 µM | SK-MEL-28 > 100 µM | SK-MEL-2 > 100 µM | SK-OV-3 > 100 µM | SN12C > 100 µM | SNB-75 > 100 µM | U-251 > 10 µM | UACC-257 > 100 µM

CCOC(=O)/C(=C\NC#N)c1nc2ccccc2[nH]1
inactive: HCC 2998 > 100 µM | HCT-116 > 100 µM | HL-60 45.5 µM | HOP-92 > 100 µM | IGROV-1 58.9 µM | KM12 > 100 µM | LOX IMVI > 100 µM | OVCAR-3 > 100 µM | OVCAR-8 > 100 µM | SF-268 72.9 µM | SF-295 > 100 µM | SK-MEL-28 > 100 µM | SK-OV-3 > 100 µM | SN12C > 100 µM | SNB-75 > 100 µM | UACC-257 > 100 µM

O=S(=O)(O)c1ccc(-c2c3nc(c(-c4ccc(S(=O)(=O)O)cc4)c4ccc([nH]4)c(-c4ccc(S(=O)(=O)O)cc4)c4nc(c(-c5ccc(S(=O)(=O)O)cc5)c5ccc2[nH]5)C=C4)C=C3)cc1
inactive: HCT-116 > 100 µM | HL-60 55.5 µM | HOP-92 91.2 µM | IGROV-1 53.3 µM | K562 37.2 µM | KM12 51.5 µM | LOX IMVI 37.8 µM | NCI-H226 32.7 µM | OVCAR-3 36.3 µM | OVCAR-8 > 100 µM | SF-268 > 100 µM | SF-295 47.4 µM | SK-MEL-28 24.1 µM | SK-MEL-2 > 100 µM | SK-OV-3 58.3 µM | SN12C 42.7 µM | SNB-75 > 100 µM | U-251 60.5 µM | UACC-257 > 100 µM

OC[C@H]1NC[C@@H](O)[C@@H](O)[C@H]1O
inactive: HCC 2998 > 100 µM | HCT-116 > 100 µM | HOP-92 > 100 µM | IGROV-1 > 100 µM | K562 > 100 µM | KM12 > 100 µM | LOX IMVI > 100 µM | NCI-H226 > 100 µM | OVCAR-3 > 100 µM | OVCAR-8 > 100 µM | SF-295 > 100 µM | SK-MEL-28 > 10 µM | SK-MEL-2 > 100 µM | SK-OV-3 > 100 µM | SN12C > 100 µM | SNB-75 9.29 µM | U-251 > 100 µM | UACC-257 > 100 µM
